Experiment [1] concerns the target Tyrosine-protein kinase Lck (Homo sapiens, UniProt P06239).
The target of experiment [2] is T1, Tyrosine-protein kinase ITK/TSK (Homo sapiens, UniProt Q08881).
T1 sequence (Q08881 whole entry): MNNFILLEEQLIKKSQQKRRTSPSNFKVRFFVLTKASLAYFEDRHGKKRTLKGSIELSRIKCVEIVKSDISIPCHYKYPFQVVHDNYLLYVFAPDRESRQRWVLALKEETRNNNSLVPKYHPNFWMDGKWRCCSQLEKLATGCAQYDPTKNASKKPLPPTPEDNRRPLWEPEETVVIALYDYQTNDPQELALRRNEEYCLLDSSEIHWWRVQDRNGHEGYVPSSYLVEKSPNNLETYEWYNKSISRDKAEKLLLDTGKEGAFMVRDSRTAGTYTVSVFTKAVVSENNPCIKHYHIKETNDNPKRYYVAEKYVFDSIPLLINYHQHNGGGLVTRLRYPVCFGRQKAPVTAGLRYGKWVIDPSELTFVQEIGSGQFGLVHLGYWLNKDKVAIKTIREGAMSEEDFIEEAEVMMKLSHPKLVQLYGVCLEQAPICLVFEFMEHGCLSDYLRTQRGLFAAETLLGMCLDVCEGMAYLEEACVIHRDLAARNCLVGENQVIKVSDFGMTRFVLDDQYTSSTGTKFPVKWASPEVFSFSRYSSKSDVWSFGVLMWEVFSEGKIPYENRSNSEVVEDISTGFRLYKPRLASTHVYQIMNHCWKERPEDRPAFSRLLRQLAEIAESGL

SMILES strings stand for the structures.

Tyrosine-protein kinase Lck, sequence (P06239 whole entry): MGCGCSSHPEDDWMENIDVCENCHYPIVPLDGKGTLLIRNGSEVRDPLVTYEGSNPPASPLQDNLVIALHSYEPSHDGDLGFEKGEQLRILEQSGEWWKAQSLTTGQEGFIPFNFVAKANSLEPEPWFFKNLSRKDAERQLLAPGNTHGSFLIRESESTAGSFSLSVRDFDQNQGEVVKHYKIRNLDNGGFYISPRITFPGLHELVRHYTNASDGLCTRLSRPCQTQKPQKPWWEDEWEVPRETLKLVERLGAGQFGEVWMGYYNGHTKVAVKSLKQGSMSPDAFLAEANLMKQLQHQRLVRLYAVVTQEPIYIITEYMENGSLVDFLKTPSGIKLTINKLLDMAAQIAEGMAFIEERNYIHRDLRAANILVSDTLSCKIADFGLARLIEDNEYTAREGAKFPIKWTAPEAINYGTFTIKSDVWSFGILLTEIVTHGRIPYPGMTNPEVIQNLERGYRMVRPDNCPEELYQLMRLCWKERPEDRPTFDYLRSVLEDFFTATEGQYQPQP

By Ki is commonly meant a dissociation constant, usually derived from enzyme kinetics or from competition with a known ligand. A low value points to higher affinity. `Cc1cccc(Cl)c1NC(=O)c1ccc2nc(NC(=O)NC(C)(C)C)sc2c1` had a Ki in experiment [1] of 4 nM.
`COc1cc(C)c(Sc2cnc(NC(=O)c3ccc(CNC(C)C(C)(C)C)cc3)s2)cc1C(=O)N1CCN(C(C)=O)CC1` (configuration not stated) displayed a Ki in experiment [2] of 16 nM.

The record behind these values is ChEMBL document CHEMBL1240298, “Features of selective kinase inhibitors” (Chem Biol, 2005).
